The compounds below were run against hcGAS (Homo sapiens, UniProt Q8N884) (assay: hcGAS Kinase-Glo assay (ATP depletion)). Conditions: 40 nM hcGAS, 100 μM ATP, 100 μM GTP, 25 nM dsDNA, 3 h incubation.
Format: biochemical
Protocol: cGAS catalyzes the cyclization of ATP and GTP to produce cGAMP, which is the activating ligand of STING. Human cGAS (hcGAS) inhibition can thus be quantified by measuring how much cGAMP is formed either indirectly, by monitoring ATP-depletion as in the hcGAS Kinase-Glo assay (as described below), or directly, such as using the hcGAS LCMS assay (as described below).
(i) hcGAS Kinase-Glo Assay
Compounds were tested for their human-cGAS […] inhibition activity using the methodology reported in Lama et al., “Development of human cGAS-specific small molecule inhibitors for repression of dsDNA-triggered interferon expression”, Nature Communications 10, Article number: 2261 (2019), with slight changes to some conditions as shown in Table B.
The results of the assay, expressed in IC50 values, are reported in Table D with the following designations: A represents an IC50 value<0.01 μM; B represents an IC50 value≥0.01 μM and <0.03 μM; C represents an IC50 value≥0.03 μM and <0.1 μM; D represents an IC50 value≥0.1.

Chain of hcGAS (Q8N884 whole entry): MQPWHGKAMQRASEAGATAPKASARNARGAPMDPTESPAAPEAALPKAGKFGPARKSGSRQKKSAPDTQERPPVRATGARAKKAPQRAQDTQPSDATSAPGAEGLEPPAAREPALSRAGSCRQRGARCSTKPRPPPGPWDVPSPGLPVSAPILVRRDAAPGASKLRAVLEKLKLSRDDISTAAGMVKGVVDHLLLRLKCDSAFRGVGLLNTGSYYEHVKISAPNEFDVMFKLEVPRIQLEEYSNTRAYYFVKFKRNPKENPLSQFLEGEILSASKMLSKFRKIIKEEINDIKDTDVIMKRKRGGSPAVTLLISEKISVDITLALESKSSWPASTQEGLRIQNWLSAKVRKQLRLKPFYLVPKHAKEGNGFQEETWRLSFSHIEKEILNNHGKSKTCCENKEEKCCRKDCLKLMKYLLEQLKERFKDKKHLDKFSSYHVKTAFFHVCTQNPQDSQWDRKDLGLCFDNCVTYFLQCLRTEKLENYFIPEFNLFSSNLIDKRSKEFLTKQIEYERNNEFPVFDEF

Compound	IC50
COc1c(N[C@H]2C[C@@H](OC)C2)cc(C(=O)Nc2nnc(-n3nccc3C)s2)oc1=O [Compound 9, 3-methoxy-4-(((1,3-cis)-3-methoxycyclobutyl)amino)-N-(5-(5-methyl-1H-pyrazol-1-yl)-1,3,4-thiadiazol-2-yl)-2-oxo-2H-pyran-6-carboxamide]	0.03 to 0.1 µM
COc1c(NCCN)cc(C(=O)Nc2nnc(-n3nccc3C)s2)oc1=O [Compound 203, 4-((2-aminoethyl)amino)-3-methoxy-N-(5-(5-methyl-1H-pyrazol-1-yl)-1,3,4-thiadiazol-2-yl)-2-oxo-2H-pyran-6-carboxamide]	≥ 0.1 µM
COc1c(NC2COC2)cc(C(=O)Nc2nnc(-n3nccc3C)s2)oc1=O [Compound 104, 3-methoxy-N-(5-(5-methyl-1H-pyrazol-1-yl)-1,3,4-thiadiazol-2-yl)-4-(oxetan-3-ylamino)-2-oxo-2H-pyran-6-carboxamide]	0.03 to 0.1 µM
COCC12CC(Nc3cc(C(=O)Nc4nnc(-n5nccc5C)s4)oc(=O)c3OC)(C1)C2 [Compound 44, 3-methoxy-4-((3-(methoxymethyl)bicyclo[1.1.1]pentan-1-yl)amino)-N-(5-(5-methyl-1H-pyrazol-1-yl)-1,3,4-thiadiazol-2-yl)-2-oxo-2H-pyran-6-carboxamide]	0.03 to 0.1 µM
COc1c(N[C@@H]2CCS(=O)(=O)C2)cc(C(=O)Nc2nnc(-n3nccc3C)s2)oc1=O [Compound 82, (R)-4-((1,1-dioxidotetrahydrothiophen-3-yl)amino)-3-methoxy-N-(5-(5-methyl-1H-pyrazol-1-yl)-1,3,4-thiadiazol-2-yl)-2-oxo-2H-pyran-6-carboxamide]	0.03 to 0.1 µM
COCCNc1cc(C(=O)Nc2nnc(-n3ncc(F)c3Cl)s2)oc(=O)c1OC [Compound 134, N-(5-(5-chloro-4-fluoro-1H-pyrazol-1-yl)-1,3,4-thiadiazol-2-yl)-5-methoxy-4-(2-methoxyethylamino)-6-oxo-6H-pyran-2-carboxamide]	0.03 to 0.1 µM
COc1c(N2CCOCC2)cc(C(=O)Nc2nnc(-n3nccc3C)s2)oc1=O [Compound 186, 3-methoxy-N-(5-(5-methyl-1H-pyrazol-1-yl)-1,3,4-thiadiazol-2-yl)-4-morpholino-2-oxo-2H-pyran-6-carboxamide]	0.03 to 0.1 µM
COc1c(NCCN(C)C)cc(C(=O)Nc2nnc(-n3nccc3C)s2)oc1=O [Compound 181, 4-((2-(dimethylamino)ethyl)amino)-3-methoxy-N-(5-(5-methyl-1H-pyrazol-1-yl)-1,3,4-thiadiazol-2-yl)-2-oxo-2H-pyran-6-carboxamide]	≥ 0.1 µM
CNCCNc1cc(C(=O)Nc2nnc(-n3nccc3C)s2)oc(=O)c1OC [Compound 204, 3-methoxy-N-(5-(5-methyl-1H-pyrazol-1-yl)-1,3,4-thiadiazol-2-yl)-4-((2-(methylamino)ethyl)amino)-2-oxo-2H-pyran-6-carboxamide]	≥ 0.1 µM
COc1c(N[C@H]2C[C@H](O)C2)cc(C(=O)Nc2nnc(-n3nccc3C)s2)oc1=O [Compound 16, 4-(((1,3-trans)-3-hydroxycyclobutyl)amino)-3-methoxy-N-(5-(5-methyl-1H-pyrazol-1-yl)-1,3,4-thiadiazol-2-yl)-2-oxo-2H-pyran-6-carboxamide]	0.03 to 0.1 µM
CCc1ccnn1-c1nnc(NC(=O)c2cc(NCCOC)c(OC)c(=O)o2)s1 [Compound 141, N-(5-(5-ethyl-1H-pyrazol-1-yl)-1,3,4-thiadiazol-2-yl)-3-methoxy-4-((2-methoxyethyl)amino)-2-oxo-2H-pyran-6-carboxamide]	≥ 0.1 µM
COc1c(NC2CC2)cc(C(=O)Nc2nnc(-n3nccc3C)s2)oc1=O [Compound 180, 4-(cyclopropylamino)-5-methoxy-N-[5-(5-methylpyrazol-1-yl)-1,3,4-thiadiazol-2-yl]-6-oxopyran-2-carboxamide]	0.03 to 0.1 µM
COc1c(NC2CCS(=O)(=O)CC2)cc(C(=O)Nc2nnc(-n3nccc3C)s2)oc1=O [Compound 29, 4-((1,1-dioxidotetrahydro-2H-thiopyran-4-yl)amino)-3-methoxy-N-(5-(5-methyl-1H-pyrazol-1-yl)-1,3,4-thiadiazol-2-yl)-2-oxo-2H-pyran-6-carboxamide]	0.03 to 0.1 µM
COCCNc1cc(C(=O)Nc2nnc(-c3c(C)csc3C#N)s2)oc(=O)c1OC [Compound 137, N-(5-(2-cyano-4-methylthiophen-3-yl)-1,3,4-thiadiazol-2-yl)-3-methoxy-4-((2-methoxyethyl)amino)-2-oxo-2H-pyran-6-carboxamide]	≥ 0.1 µM
CNc1cc(C(=O)Nc2nnc(-n3nccc3C)s2)oc(=O)c1OC [Compound 105, 3-methoxy-N-(5-(5-methyl-1H-pyrazol-1-yl)-1,3,4-thiadiazol-2-yl)-4-(methylamino)-2-oxo-2H-pyran-6-carboxamide]	0.03 to 0.1 µM

The next lines start with the values.

IC50	Compound
0.03 to 0.1 µM	COC[C@H]1CCN(c2cc(C(=O)Nc3nnc(-n4nccc4C)s3)oc(=O)c2OC)C1 [Compound 87, (S)-3-methoxy-4-(3-(methoxymethyl)pyrrolidin-1-yl)-N-(5-(5-methyl-1H-pyrazol-1-yl)-1,3,4-thiadiazol-2-yl)-2-oxo-2H-pyran-6-carboxamide]
0.01 to 0.03 µM	COc1c(N2CCC(OC)CC2)cc(C(=O)Nc2nnc(-n3nccc3C)s2)oc1=O [Compound 19, 3-methoxy-4-(4-methoxypiperidin-1-yl)-N-(5-(5-methyl-1H-pyrazol-1-yl)-1,3,4-thiadiazol-2-yl)-2-oxo-2H-pyran-6-carboxamide]
0.01 to 0.03 µM	COc1c(NC23CC(CO)(C2)C3)cc(C(=O)Nc2nnc(-n3nccc3C)s2)oc1=O [Compound 218, 4-((3-(hydroxymethyl)bicyclo[1.1.1]pentan-1-yl)amino)-3-methoxy-N-(5-(5-methyl-1H-pyrazol-1-yl)-1,3,4-thiadiazol-2-yl)-2-oxo-2H-pyran-6-carboxamide]
0.01 to 0.03 µM	COc1c(N[C@H]2CC[C@@H](OC)CC2)cc(C(=O)Nc2nnc(-n3nccc3C)s2)oc1=O [Compound 219, 3-methoxy-4-((1,4-cis-4-methoxycyclohexyl)amino)-N-(5-(5-methyl-1H-pyrazol-1-yl)-1,3,4-thiadiazol-2-yl)-2-oxo-2H-pyran-6-carboxamide]
0.01 to 0.03 µM	COc1c(NCC(F)(F)F)cc(C(=O)Nc2nnc(-n3nccc3C)s2)oc1=O [Compound 90, 3-methoxy-N-(5-(5-methyl-1H-pyrazol-1-yl)-1,3,4-thiadiazol-2-yl)-2-oxo-4-((2,2,2-trifluoroethyl)amino)-2H-pyran-6-carboxamide]
0.01 to 0.03 µM	COc1c(N2CCC[C@H]2CO)cc(C(=O)Nc2nnc(-n3nccc3C)s2)oc1=O [Compound 40, (S)-4-(2-(hydroxymethyl)pyrrolidin-1-yl)-3-methoxy-N-(5-(5-methyl-1H-pyrazol-1-yl)-1,3,4-thiadiazol-2-yl)-2-oxo-2H-pyran-6-carboxamide]
0.01 to 0.03 µM	COc1c(NC23CC(C(F)F)(C2)C3)cc(C(=O)Nc2nnc(-n3nccc3C)s2)oc1=O [Compound 115, 4-((3-(difluoromethyl)bicyclo[1.1.1]pentan-1-yl)amino)-3-methoxy-N-(5-(5-methyl-1H-pyrazol-1-yl)-1,3,4-thiadiazol-2-yl)-2-oxo-2H-pyran-6-carboxamide]
0.01 to 0.03 µM	COCCNc1cc(C(=O)Nc2nnc(-n3nccc3C(F)F)s2)oc(=O)c1OC [Compound 144, N-(5-(5-(difluoromethyl)-1H-pyrazol-1-yl)-1,3,4-thiadiazol-2-yl)-3-methoxy-4-((2-methoxyethyl)amino)-2-oxo-2H-pyran-6-carboxamide]
0.01 to 0.03 µM	COc1c(N2CCC(O)CC2)cc(C(=O)Nc2nnc(-n3nccc3C)s2)oc1=O [Compound 46, 4-(4-hydroxypiperidin-1-yl)-3-methoxy-N-(5-(5-methyl-1H-pyrazol-1-yl)-1,3,4-thiadiazol-2-yl)-2-oxo-2H-pyran-6-carboxamide]
0.01 to 0.03 µM	COc1c(N[C@H]2COC[C@H]2O)cc(C(=O)Nc2nnc(-n3nccc3C)s2)oc1=O [Compound 113, 4-(((3S,4S)-4-hydroxytetrahydrofuran-3-yl)amino)-3-methoxy-N-(5-(5-methyl-1H-pyrazol-1-yl)-1,3,4-thiadiazol-2-yl)-2-oxo-2H-pyran-6-carboxamide]
0.01 to 0.03 µM	COc1c(NC23CC(C#N)(C2)C3)cc(C(=O)Nc2nnc(-n3nccc3C)s2)oc1=O [Compound 45, 4-((3-cyanobicyclo[1.1.1]pentan-1-yl)amino)-3-methoxy-N-(5-(5-methyl-1H-pyrazol-1-yl)-1,3,4-thiadiazol-2-yl)-2-oxo-2H-pyran-6-carboxamide]
0.01 to 0.03 µM	COCC1CCN(c2cc(C(=O)Nc3nnc(-n4nccc4C)s3)oc(=O)c2OC)CC1 [Compound 2, 3-methoxy-4-(4-(methoxymethyl)piperidin-1-yl)-N-(5-(5-methyl-1H-pyrazol-1-yl)-1,3,4-thiadiazol-2-yl)-2-oxo-2H-pyran-6-carboxamide]
0.01 to 0.03 µM	COc1c(N[C@H]2C[C@H](OC)C2)cc(C(=O)Nc2nnc(-n3nccc3C)s2)oc1=O [Compound 69, 3-methoxy-4-(((1,3-trans)-3-methoxycyclobutyl)amino)-N-(5-(5-methyl-1H-pyrazol-1-yl)-1,3,4-thiadiazol-2-yl)-2-oxo-2H-pyran-6-carboxamide]
0.01 to 0.03 µM	COc1c(NCCCO)cc(C(=O)Nc2nnc(-n3nccc3C)s2)oc1=O [Compound 35, 4-((3-hydroxypropyl)amino)-3-methoxy-N-(5-(5-methyl-1H-pyrazol-1-yl)-1,3,4-thiadiazol-2-yl)-2-oxo-2H-pyran-6-carboxamide]

Source: US20240270740A1, “INHIBITORS OF CYCLIC GMP-AMP SYNTHASE AND USES THEREOF” (Ventus Therapeutics U.S., Inc., priority 2022, published 2024)
